Experimental data from patent publication US20240041042A1, “1-(PYRIDYL)-5-AZINYLPYRAZOLE DERIVATIVES, AND THEIR USE FOR CONTROL OF UNDESIRED PLANT GROWTH” (Bayer Aktiengesellschaft, priority 2020, published 2024).
Like-named read-outs stand apart in the source and are kept apart here.

Key:
Assay type in all cases: in vivo
[1] = system: Alopecurus myosuroides (ALOMY); assay: Pre-emergence herbicidal action against ALOMY; settings: scored visually after about 3 weeks, 100% = plants have died
In short: (§1)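 Herbicide applied to soil before seedling emergence, at 600 l/ha spray volume with 0.5% additive and rates up to 320 g/ha. Evaluation: visual percentage effect, about 3 weeks later, greenhouse-grown pots compared with untreated ones.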

[2] = system: Amaranthus retroflexus (AMARE); assay: Pre-emergence herbicidal action against AMARE; settings: visual scoring after about 3 weeks vs untreated controls
In short: as §1

[3] = system: Digitaria sanguinalis (DIGSA); assay: Pre-emergence herbicidal action against DIGSA
In short: as §1

Lolium rigidum (LOLRI) [4] = assay: Pre-emergence herbicidal action against LOLRI
In short: as §1

Setaria viridis (SETVI) [5] = assay: Pre-emergence herbicidal action against SETVI
In short: as §1

[6] = system: Verconica persica (VERPE); assay: Pre-emergence herbicidal action against VERPE; settings: dosage 320 g/ha
In short: as §1

Viola tricolor (VIOTR) [7] = assay: Pre-emergence herbicidal action against VIOTR
In short: as §1

Oryza sativa (ORYSA) [8] = settings: pre-emergence, crop plant compatibility, in comparison to untreated controls
In short: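 Scoring: visual, % of untreated control, about 3 weeks after a pre-emergence application to the soil surface. Application used WP or EC formulations diluted in water with 0.5% additive at 600 l/ha; dosage levels are marked by suffixes a, b and c.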

[9] = system: Abutilon theophrasti (ABUTH); assay: Post-emergence herbicidal action against ABUTH; settings: 80 g/ha, visual rating about 3 weeks after treatment vs untreated controls (100% = plants have died, 0% = like control plants)
In short: (§2)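 Values are percent visual activity (0% like control, 100% plants dead) after about 3 weeks in the greenhouse. Treatment: post-emergence spray at one-leaf stage, 600 l/ha spray volume, 0.5% additive, doses 320 g/ha or lower.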

[10] = system: Alopecurus myosuroides (ALOMY); assay: Post-emergence herbicidal action against ALOMY; settings: 80 g/ha, visual rating about 3 weeks after treatment vs untreated controls (100% = plants have died, 0% = like control plants)
In short: as §2

[11] = system: Amaranthus retroflexus (AMARE); assay: Post-emergence herbicidal action against AMARE; settings: 80 g/ha, visual rating about 3 weeks after treatment vs untreated controls (100% = plants have died, 0% = like control plants)
In short: as §2

[12] = system: Pharbitis purpurea (PHBPU); assay: Post-emergence herbicidal action against PHBPU; settings: dosage 80 g/ha
In short: as §2

[13] = system: Verconica persica (VERPE); assay: Post-emergence herbicidal action against VERPE; settings: dosage 80 g/ha
In short: as §2

Oryza sativa (ORYSA) [14] = settings: crop plant compatibility
In short: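 Percent effect on the crop was judged by eye against untreated controls, where 0% means like control and 100% means dead plants. Plants had been sprayed post-emergence at the one-leaf stage and then kept under optimum greenhouse conditions for about 3 weeks.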

Avena fatua (AVEFA) [15] = assay: Pre-emergence herbicidal action against AVEFA; settings: 320 g/ha, visual scoring after about 3 weeks vs untreated controls
In short: as §1

[16] = system: Echinochloa crus-galli (ECHCG); assay: Pre-emergence herbicidal action against ECHCG; settings: dosage 320 g/ha
In short: as §1

[17] = system: Matricaria inodora (MATIN); assay: Pre-emergence herbicidal action against MATIN; settings: dosage 320 g/ha
In short: as §1

[18] = system: Pharbitis purpurea (PHBPU); assay: Pre-emergence herbicidal action against PHBPU
In short: as §1

[19] = system: Polygonum convolvulus (POLCO); assay: Pre-emergence herbicidal action against POLCO
In short: as §1

Avena fatua (AVEFA) [20] = assay: Post-emergence herbicidal action against AVEFA; settings: 80 g/ha, visual rating about 3 weeks after treatment
In short: as §2

[21] = system: Digitaria sanguinalis (DIGSA); assay: Post-emergence herbicidal action against DIGSA; settings: 80 g/ha, visual rating about 3 weeks after treatment
In short: as §2

[22] = system: Echinochloa crus-galli (ECHCG); assay: Post-emergence herbicidal action against ECHCG; settings: dosage 80 g/ha
In short: as §2

Lolium rigidum (LOLRI) [23] = assay: Post-emergence herbicidal action against LOLRI; settings: dosage 80 g/ha
In short: as §2

[24] = system: Matricaria inodora (MATIN); assay: Post-emergence herbicidal action against MATIN; settings: dosage 80 g/ha
In short: as §2

Setaria viridis (SETVI) [25] = assay: Post-emergence herbicidal action against SETVI; settings: dosage 80 g/ha
In short: as §2

Viola tricolor (VIOTR) [26] = assay: Post-emergence herbicidal action against VIOTR; settings: 80 g/ha
In short: as §2

[27] = system: Polygonum convolvulus (POLCO); assay: Post-emergence herbicidal action against POLCO; settings: dosage 80 g/ha
In short: as §2

[28] = 80 g/ha, visual scoring after about 3 weeks vs untreated controls
[29] = 20 g/ha, effect vs untreated controls
[30] = 80 g/ha, effect in comparison to untreated controls

CCOC(=O)CN(C)S(=O)(=O)NC(=O)COc1nn(-c2ccccn2)c(-c2ccc(F)nc2)c1Br [Example I-120]
20%: Post-emergence action against ORYSA in % (Oryza sativa (ORYSA) [14]; [30])
90%: Pre-emergence action against AMARE in % ([2]; 320 g/ha) | Pre-emergence action against VERPE in % [6] | Post-emergence action against VERPE in % [13]
10%: Pre-emergence action against ORYSA in % (Oryza sativa (ORYSA) [8]; 320 g/ha) | Post-emergence action against ORYSA in % (Oryza sativa (ORYSA) [14]; [29])
80%: Pre-emergence action against ALOMY ([1]; 320 g/ha) | Pre-emergence action against LOLRI in % (Lolium rigidum (LOLRI) [4]; dosage 320 g/ha) | Pre-emergence action against VIOTR in % (Viola tricolor (VIOTR) [7]; 320 g/ha, Viola tricolor) | Post-emergence action against ABUTH in % [9] | Post-emergence action against AMARE in % [11] | Post-emergence action against PHBPU in % [12]
0%: Pre-emergence action against ORYSA in % (Oryza sativa (ORYSA) [8]; 80 g/ha)
100%: Pre-emergence action against DIGSA in % [3, 28] | Pre-emergence action against DIGSA in % ([3]; dosage 320 g/ha) | Pre-emergence action against SETVI in % (Setaria viridis (SETVI) [5]; dosage 320 g/ha) | Post-emergence action against ALOMY in % [10]

COC(=O)CNC(=O)COc1nn(-c2ccccn2)c(-c2ccc(F)nc2)c1Cl [Example I-64]
100%: Pre-emergence action against ALOMY ([1]; 320 g/ha) | Pre-emergence action against AMARE in % ([2]; 80 g/ha) | Pre-emergence action against AMARE in % ([2]; 320 g/ha) | Pre-emergence action against DIGSA in % [3, 28] | Pre-emergence action against DIGSA in % ([3]; dosage 320 g/ha) | Pre-emergence action against ECHCG in % [16] | Pre-emergence action against LOLRI in % (Lolium rigidum (LOLRI) [4]; dosage 320 g/ha) | Pre-emergence action against SETVI in % (Setaria viridis (SETVI) [5]; dosage 320 g/ha) | Post-emergence action against ALOMY in % [10]
20%: Pre-emergence action against ORYSA in % (Oryza sativa (ORYSA) [8]; 80 g/ha)
90%: Pre-emergence action against ALOMY ([1]; 80 g/ha) | Pre-emergence action against AVEFA in % (Avena fatua (AVEFA) [15]) | Pre-emergence action against MATIN in % [17] | Pre-emergence action against PHBPU in % ([18]; dosage 80 g/ha) | Pre-emergence action against PHBPU in % ([18]; dosage 320 g/ha) | Pre-emergence action against POLCO in % ([19]; dosage 320 g/ha) | Pre-emergence action against SETVI in % (Setaria viridis (SETVI) [5]; dosage 80 g/ha) | Pre-emergence action against VERPE in % [6] | Pre-emergence action against VIOTR in % (Viola tricolor (VIOTR) [7]; 320 g/ha, Viola tricolor) | Post-emergence action against ABUTH in % [9] | Post-emergence action against AMARE in % [11] | Post-emergence action against DIGSA in % [21] | Post-emergence action against ECHCG in % [22] | Post-emergence action against MATIN in % [24] | Post-emergence action against PHBPU in % [12] | Post-emergence action against SETVI in % (Setaria viridis (SETVI) [25]) | Post-emergence action against VERPE in % [13]
80%: Pre-emergence action against LOLRI in % (Lolium rigidum (LOLRI) [4]; dosage 80 g/ha) | Post-emergence action against AVEFA in % (Avena fatua (AVEFA) [20]) | Post-emergence action against LOLRI in % (Lolium rigidum (LOLRI) [23]) | Post-emergence action against VIOTR in % (Viola tricolor (VIOTR) [26])
10%: Post-emergence action against ORYSA in % (Oryza sativa (ORYSA) [14]; [29])

COC(=O)[C@@H](C)NC(=O)COc1nn(-c2ccccn2)c(-c2ccnc(F)c2)c1Br [Example I-59]
80%: Pre-emergence action against ALOMY ([1]; 80 g/ha) | Pre-emergence action against AVEFA in % (Avena fatua (AVEFA) [15]) | Pre-emergence action against LOLRI in % (Lolium rigidum (LOLRI) [4]; dosage 80 g/ha) | Pre-emergence action against POLCO in % ([19]; dosage 80 g/ha) | Post-emergence action against ABUTH in % [9] | Post-emergence action against AVEFA in % (Avena fatua (AVEFA) [20]) | Post-emergence action against ECHCG in % [22] | Post-emergence action against LOLRI in % (Lolium rigidum (LOLRI) [23]) | Post-emergence action against MATIN in % [24] | Post-emergence action against PHBPU in % [12] | Post-emergence action against POLCO in % [27] | Post-emergence action against VIOTR in % (Viola tricolor (VIOTR) [26])
100%: Pre-emergence action against ALOMY ([1]; 320 g/ha) | Pre-emergence action against AMARE in % ([2]; 80 g/ha) | Pre-emergence action against AMARE in % ([2]; 320 g/ha) | Pre-emergence action against DIGSA in % [3, 28] | Pre-emergence action against DIGSA in % ([3]; dosage 320 g/ha) | Pre-emergence action against ECHCG in % [16] | Pre-emergence action against LOLRI in % (Lolium rigidum (LOLRI) [4]; dosage 320 g/ha) | Pre-emergence action against SETVI in % (Setaria viridis (SETVI) [5]; dosage 320 g/ha)
0%: Post-emergence action against ORYSA in % (Oryza sativa (ORYSA) [14]; [29]) | Post-emergence action against ORYSA in % (Oryza sativa (ORYSA) [14]; [30])
90%: Pre-emergence action against POLCO in % ([19]; dosage 320 g/ha) | Pre-emergence action against SETVI in % (Setaria viridis (SETVI) [5]; dosage 80 g/ha) | Pre-emergence action against VERPE in % [6] | Pre-emergence action against VIOTR in % (Viola tricolor (VIOTR) [7]; 320 g/ha, Viola tricolor) | Pre-emergence action against VIOTR in % (Viola tricolor (VIOTR) [7]; dosage 80 g/ha) | Post-emergence action against ALOMY in % [10] | Post-emergence action against AMARE in % [11] | Post-emergence action against VERPE in % [13]
20%: Pre-emergence action against ORYSA in % (Oryza sativa (ORYSA) [8]; 80 g/ha)
